{
  "source": "patent US20100173835A1",
  "about": "“Peptides for Treatment of Obesity” (Novo Nordisk A/S, priority 2008, published 2010)",
  "key": {"[1]": {"experiment": "Solubility data of compounds in water over the pH range", "format": "physicochemical", "conditions": "read-out: Conc (solubility in water)"}, "[2]": {"target": "T1, human MC4 receptor (Homo sapiens, UniProt P32245)", "T1 construct": "expressed in transfected cells", "T1 sequence (P32245 whole entry)": "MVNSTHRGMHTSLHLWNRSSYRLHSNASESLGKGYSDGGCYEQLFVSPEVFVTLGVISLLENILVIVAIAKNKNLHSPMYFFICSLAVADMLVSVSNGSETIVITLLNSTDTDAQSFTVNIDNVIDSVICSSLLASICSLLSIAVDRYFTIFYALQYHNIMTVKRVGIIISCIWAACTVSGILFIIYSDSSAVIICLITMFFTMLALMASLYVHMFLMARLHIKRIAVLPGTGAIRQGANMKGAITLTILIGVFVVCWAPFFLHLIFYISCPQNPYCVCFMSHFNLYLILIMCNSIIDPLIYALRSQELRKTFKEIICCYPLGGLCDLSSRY", "experiment": "Assay (V) Melanocortin Receptor 4 (MC4) binding assay", "conditions": "125NDP-α-MSH binding, BHK cell membranes", "method_in_brief": "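BHK membranes stably expressing human MC4 receptor were incubated with ^125NDP-α-MSH (≈79 pM final) and compound for 2 h at 25 °C, pH 7.0 HEPES buffer with HSA or ovalbumin. Filter-bound radioactivity was gamma counted. Binding curves were fitted by non-linear regression.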"}, "[3]": {"system": "ad libitum fed rat model", "experiment": "Assay (I) efficacy testing on appetite, ad libitum fed rat model", "format": "in vivo", "conditions": "dosing 1 mg/kg", "method": "Assay (I)—Experimental protocol for efficacy testing on appetite with MC4 analogues, using an ad libitum fed rat model. TAC:SPRD @mol rats or Wistar rats from M&B Breeding and Research Centre A/S, Denmark are used for the experiments. The rats have a body weight 200-250 g at the start of experiment. The rats arrive at least 10-14 days before start of experiment with a body weight of 180-200 g. Each dose of compound is tested in a group of 8 rats. […] When the animals arrive they are housed individually in a reversed light/dark phase (lights off 7:30 am, lights on 7:30 pm), meaning that lights are off during daytime and on during nighttime. […] During this period the animals are handled at least 3 times. The experiment is conducted in the rats' home cages. Immediately before dosing the rats are randomised to the various treatment groups (n 8) by body weight. They are dosed according to body weight at between 7:00 am and 7:45 am, with a 1-3 mg/kg solution administered intraperitoneally (ip), orally (po) or subcutaneously (sc). The time of dosing is recorded for each group. After dosing, the rats are returned to their home cages, where they then have access to food and water. […] At the end of the experimental session, the animals are euthanised. The individual data are recorded in Microsoft excel sheets. Outliers are excluded after applying the Grubbs statistical evaluation test for outliers, and the result is presented graphically using the GraphPad Prism program."}, "[4]": {"target": "T2, MC1 receptor (Homo sapiens, UniProt Q01726)", "T2 construct": "expressed in transfected cells", "T2 sequence (Q01726 whole entry)": "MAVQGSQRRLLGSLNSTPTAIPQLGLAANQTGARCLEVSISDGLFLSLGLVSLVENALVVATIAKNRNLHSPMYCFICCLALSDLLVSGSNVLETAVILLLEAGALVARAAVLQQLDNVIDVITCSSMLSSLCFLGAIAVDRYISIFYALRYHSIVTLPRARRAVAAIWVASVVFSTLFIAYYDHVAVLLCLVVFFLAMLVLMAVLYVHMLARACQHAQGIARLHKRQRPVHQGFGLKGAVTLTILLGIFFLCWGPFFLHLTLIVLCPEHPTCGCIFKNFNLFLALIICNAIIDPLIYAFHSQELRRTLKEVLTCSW", "experiment": "Assay (IV) Melanocortin Receptor 1 (MC1) binding assay", "method_in_brief": "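Competition binding used BHK cell membranes stably expressing MC1 (25 μg/ml) with 22 pM final ^125NDP-α-MSH in 25 mM HEPES pH 7.4, CaCl2, MgSO4, EDTA, 0.1% HSA (or ovalbumin), 0.005% Tween 20. After 90 min at 30° C., bound radioligand was filtered and counted, with binding curves fitted by non-linear regression.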"}},
  "note": "Like-named read-outs stand apart in the source and are kept apart here. Where a SMILES comes first, the peptide text is derived from it. Bridges are numbered along the chain shown (N, C = ends). Side-chain parts run from the residue outwards. [ ]: non-standard residue; d: D form. The star is where a group is joined. Palmitoyl(16-(5-tetrazolyl)) = O=C(CCCCCCCCCCCCCCCc1nnn[nH]1)*; Lys(CH2CO2H)2 = N[C@@H](CCCCN(CC(=O)O)CC(=O)O)C(=O)O; Hyp = O=C(O)[C@@H]1C[C@@H](O)CN1; NTA = O=C(O)CN(CC(=O)O)CC(=O)*; Nle = CCCC[C@H](N)C(=O)O; Dap = NC[C@H](N)C(=O)O; AEEA = NCCOCCOCC(=O)O; βAla = NCCC(=O)O",
  "data": [
    {"smiles": "CCCC[C@H](NC(=O)[C@H](CNC(=O)[C@H](Cc1c[nH]cn1)NC(=O)[C@H](CCC(N)=O)NC(=O)[C@H](CO)NC(=O)CNC(=O)COCCOCCNC(=O)CCCCCCCCCCCCCCCc1nnn[nH]1)NC(=O)CN(CC(=O)O)CC(=O)O)C(=O)N[C@H]1CCC(=O)NCCCC[C@@H](C(N)=O)NC(=O)[C@H](Cc2c[nH]c3ccccc23)NC(=O)[C@H](CCCNC(=N)N)NC(=O)[C@@H](Cc2ccccc2)NC(=O)[C@@H]2C[C@@H](O)CN2C1=O", "note": "[Example 2, (2-{2-[16-(Tetrazol-5-yl)hexadecanoylamino]ethoxy}ethoxy)acetyl-Gly-Ser-Gln-His-β-Dap(BCMA)-Nle-c[Glu-Hyp-D-Phe-Arg-Trp-Lys]-NH2] ({NTA}-[Dap]([His-Gln-Ser-Gly-AEEA-Palmitoyl(16-(5-tetrazolyl))])[Nle]E[Hyp][dF]RWK-NH2; lactam 3-8)", "values": [
      {"measurement": "solubility at 3 days", "setting": "[1]; pH 3.02, pH 3.02", "value": 320, "unit": "µM"},
      {"measurement": "solubility at 3 days", "setting": "[1]; pH 3.84, pH 3.84", "value": 421, "unit": "µM"},
      {"measurement": "solubility at 3 days", "setting": "[1]; pH 4.3, pH 4.3", "value": 216, "unit": "µM"},
      {"measurement": "solubility at 3 days", "setting": "[1]; pH 4.64, pH 4.64", "value": 49, "unit": "µM"},
      {"measurement": "solubility at 3 days", "setting": "[1]; pH 5.22, pH 5.22", "value": 13, "unit": "µM"},
      {"measurement": "solubility at 3 days", "setting": "[1]; pH 6.55, pH 6.55", "value": 14, "unit": "µM"},
      {"measurement": "solubility at 3 days", "setting": "[1]; pH 7.2, pH 7.2", "value": 122, "unit": "µM"},
      {"measurement": "solubility at 3 days", "setting": "[1]; pH 7.36, pH 7.36", "value": 251, "unit": "µM"},
      {"measurement": "solubility at 3 days", "setting": "[1]; pH 7.53, pH 7.53", "value": 320, "unit": "µM"},
      {"measurement": "solubility at 3 days", "setting": "[1]; pH 7.81, pH 7.81", "value": 77, "unit": "µM"},
      {"measurement": "Ki", "setting": "[2]; read-out: Assay (V) MC4 [Ki]", "value": 3.43, "unit": "nM"},
      {"measurement": "Food consumption (% of vehicle) 24 h", "setting": "[3]", "value": "60 % of vehicle"},
      {"measurement": "Food consumption (% of vehicle) 48 h", "setting": "[3]", "value": "71 % of vehicle"},
      {"measurement": "Ki", "setting": "[4]; 125NDP-α-MSH binding, BHK cell membranes, read-out: Assay (IV) MC1 Ki", "value": 5570, "unit": "nM"}
    ]},
    {"smiles": "CCCC[C@H](NC(=O)[C@H](CCCCN(CC(=O)O)CC(=O)O)NC(=O)CCNC(=O)[C@H](Cc1c[nH]cn1)NC(=O)[C@H](CCC(N)=O)NC(=O)[C@H](CO)NC(=O)[C@H](CO)NC(=O)[C@H](CCC(N)=O)NC(=O)[C@@H](CO)NC(=O)CNC(=O)COCCOCCNC(=O)COCCOCCNC(=O)CCCCCCCCCCCCCCCc1nnn[nH]1)C(=O)N[C@H]1CCC(=O)NCCCC[C@@H](C(N)=O)NC(=O)[C@H](Cc2c[nH]c3ccccc23)NC(=O)[C@H](CCCNC(=N)N)NC(=O)[C@@H](Cc2ccccc2)NC(=O)[C@@H]2C[C@@H](O)CN2C1=O", "note": "[Example 20, (2-{2-[2-(2-{2-[16-(Tetrazol-5-yl)hexadecanoylamino]ethoxy}ethoxy)acetylamino]ethoxy}ethoxy)acetyl-Gly-D-Ser-Gln-Ser-Ser-Gln-His-β-Ala-Lys(biscarboxymethyl)-Nle-c[Glu-Hyp-D-Phe-Arg-Trp-Lys]-NH2] ({Palmitoyl(16-(5-tetrazolyl))-AEEA-AEEA}-G[dS]QSSQH[βAla][Lys(CH2CO2H)2][Nle]E[Hyp][dF]RWK-NH2; lactam 11-16)", "values": [
      {"measurement": "solubility at 3 days", "setting": "[1]; pH 2.94, pH 2.94", "value": 499, "unit": "µM"},
      {"measurement": "solubility at 3 days", "setting": "[1]; pH 4.37, pH 4.37", "value": 512, "unit": "µM"},
      {"measurement": "solubility at 3 days", "setting": "[1]; pH 4.97, pH 4.97", "value": 406, "unit": "µM"},
      {"measurement": "solubility at 3 days", "setting": "[1]; pH 5.4, pH 5.40", "value": 67, "unit": "µM"},
      {"measurement": "solubility at 3 days", "setting": "[1]; pH 5.51, pH 5.51", "value": 56, "unit": "µM"},
      {"measurement": "solubility at 3 days", "setting": "[1]; pH 6.23, pH 6.23", "value": 53, "unit": "µM"},
      {"measurement": "solubility at 3 days", "setting": "[1]; pH 6.91, pH 6.91", "value": 223, "unit": "µM"},
      {"measurement": "solubility at 3 days", "setting": "[1]; pH 6.99", "value": 345, "unit": "µM"},
      {"measurement": "solubility at 3 days", "setting": "[1]; pH 7.23, pH 7.23", "value": 473, "unit": "µM"},
      {"measurement": "solubility at 3 days", "setting": "[1]; pH 7.55, pH 7.55", "value": 452, "unit": "µM"},
      {"measurement": "Ki", "setting": "[2]; Assay (V) MC4 [Ki] (nM)", "value": 4.55, "unit": "nM"},
      {"measurement": "Food consumption (% of vehicle) 24 h", "setting": "[3]; 1 mg/kg", "value": "61 % of vehicle"},
      {"measurement": "Food consumption (% of vehicle) 48 h", "setting": "[3]; 1 mg/kg", "value": "72 % of vehicle"},
      {"measurement": "Ki", "setting": "[4]", "value": "> 10000", "unit": "nM"}
    ]},
    {"smiles": "CCCC[C@H](NC(=O)[C@H](CCCCN(CC(=O)O)CC(=O)O)NC(=O)[C@H](CO)NC(=O)[C@H](CCC(N)=O)NC(=O)[C@H](CO)NC(=O)CNC(=O)COCCOCCNC(=O)CCCCCCCCCCCCCCCc1nnn[nH]1)C(=O)N[C@H]1CCC(=O)NCCCC[C@@H](C(N)=O)NC(=O)[C@H](Cc2c[nH]c3ccccc23)NC(=O)[C@H](CCCNC(=N)N)NC(=O)[C@@H](Cc2ccccc2)NC(=O)[C@@H]2C[C@@H](O)CN2C1=O", "note": "[Example 5, (2-{2-[16-(Tetrazol-5-yl)hexadecanoylamino]ethoxy}ethoxy)acetyl-Gly-Ser-Gln-Ser-Lys(biscarboxymethyl)-Nle-c[Glu-Hyp-D-Phe-Arg-Trp-Lys]-NH2] ({Palmitoyl(16-(5-tetrazolyl))-AEEA}-GSQS[Lys(CH2CO2H)2][Nle]E[Hyp][dF]RWK-NH2; lactam 7-12)", "values": [
      {"measurement": "solubility at 3 days", "setting": "[1]; pH 4.22, pH 4.22", "value": 20, "unit": "µM"},
      {"measurement": "solubility at 3 days", "setting": "[1]; pH 4.55, pH 4.55", "value": 21, "unit": "µM"},
      {"measurement": "solubility at 3 days", "setting": "[1]; pH 5.1, pH 5.10", "value": 25, "unit": "µM"},
      {"measurement": "solubility at 3 days", "setting": "[1]; pH 5.23, pH 5.23", "value": 30, "unit": "µM"},
      {"measurement": "solubility at 3 days", "setting": "[1]; pH 5.97, pH 5.97", "value": 129, "unit": "µM"},
      {"measurement": "solubility at 3 days", "setting": "[1]; pH 6.29, pH 6.29", "value": 239, "unit": "µM"},
      {"measurement": "solubility at 3 days", "setting": "[1]; pH 6.68, pH 6.68", "value": 244, "unit": "µM"},
      {"measurement": "solubility at 3 days", "setting": "[1]; pH 7.03, pH 7.03", "value": 245, "unit": "µM"},
      {"measurement": "solubility at 3 days", "setting": "[1]; pH 7.04, pH 7.04", "value": 251, "unit": "µM"},
      {"measurement": "Ki", "setting": "[2]; Assay (V) MC4 [Ki] (nM)", "value": 7.55, "unit": "nM"},
      {"measurement": "Food consumption (% of vehicle) 24 h", "setting": "[3]", "value": "81 % of vehicle"},
      {"measurement": "Food consumption (% of vehicle) 48 h", "setting": "[3]", "value": "91 % of vehicle"},
      {"measurement": "Ki", "setting": "[4]", "value": "> 10000", "unit": "nM"}
    ]}
  ]
}
